Experimental data published in ChEMBL document CHEMBL1156581, “Polychlorinated compounds with PPAR-gamma agonistic effect from the medicinal fungus Phellinus ribis” (Bioorg Med Chem Lett, 2008).
The source made the active and inactive calls. The calls are words filed in the database; no cut-off is given here.

Key:
[1] = target: T1, Peroxisome proliferator-activated receptor gamma (Homo sapiens) (UniProt P37231); experiment: Agonist activity at PPARgamma expressed in mouse NIH3T3 cells assessed as maximum activation at 100 uM after 16 hrs by reporter gene assay; assay type: functional, cell-based
T1 sequence (whole entry): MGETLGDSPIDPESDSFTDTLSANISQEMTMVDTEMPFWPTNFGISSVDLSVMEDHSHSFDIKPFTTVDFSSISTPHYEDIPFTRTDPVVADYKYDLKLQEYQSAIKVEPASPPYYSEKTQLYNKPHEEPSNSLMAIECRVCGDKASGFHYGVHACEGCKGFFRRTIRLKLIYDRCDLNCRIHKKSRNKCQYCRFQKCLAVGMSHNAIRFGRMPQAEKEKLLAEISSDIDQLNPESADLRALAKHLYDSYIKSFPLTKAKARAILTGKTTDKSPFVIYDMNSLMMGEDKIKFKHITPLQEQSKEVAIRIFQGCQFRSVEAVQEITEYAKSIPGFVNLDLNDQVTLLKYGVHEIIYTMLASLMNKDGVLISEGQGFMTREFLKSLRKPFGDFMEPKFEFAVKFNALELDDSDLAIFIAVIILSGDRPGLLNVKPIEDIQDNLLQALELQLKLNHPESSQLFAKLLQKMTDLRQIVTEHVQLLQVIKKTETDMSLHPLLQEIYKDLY

Escherichia coli = experiment: Antimicrobial activity against Escherichia coli; assay type: functional, organism-based
Bacillus subtilis = experiment: Antimicrobial activity against Bacillus subtilis; assay type: functional, organism-based
Staphylococcus aureus = experiment: Antimicrobial activity against Staphylococcus aureus; assay type: functional, organism-based
[2] = target: T1, Peroxisome proliferator-activated receptor gamma (Homo sapiens); experiment: Agonist activity at PPARgamma expressed in mouse NIH3T3 cells assessed as maximum activation at 10 uM after 16 hrs by reporter gene assay; assay type: functional, cell-based

fold change (FC) [1]	fold change (FC) [2]	SMILES	Activity (Escherichia coli)	Activity (Bacillus subtilis)	Activity (Staphylococcus aureus)
8.4		COc1c(Cl)c(Cl)c(O)c(Cl)c1Cl			
	8.5	COc1c(Cl)c(Cl)c(Oc2c(Cl)c(OC)c(Cl)c(Cl)c2Oc2c(O)c(Cl)c(Cl)c(OC)c2Cl)c(Cl)c1Cl	inactive	inactive	inactive
	2	COc1c(Cl)c(Cl)c(Oc2c(O)c(Oc3c(Cl)c(Cl)c(OC)c(Cl)c3Cl)c(Cl)c(OC)c2Cl)c(Cl)c1Cl	inactive	inactive	inactive
	2	COc1c(Cl)c(Cl)c(Oc2c(O)c(Cl)c(OC)c(Cl)c2Oc2c(Cl)c(Cl)c(OC)c(Cl)c2Cl)c(Cl)c1Cl	inactive	inactive	inactive
